Measured values reported in the supplement of paper PMC10307832.

Key:
Experiment in all cases: relative viability (nuclei count vs DMSO), 5 days (fraction); higher = more cells survive
IMD-0354 + Luminespib = compound: O=C(Nc1cc(C(F)(F)F)cc(C(F)(F)F)c1)c1cc(Cl)ccc1O [IMD-0354] + CCNC(=O)c1noc(-c2cc(C(C)C)c(O)cc2O)c1-c1ccc(CN2CCOCC2)cc1 [Luminespib] (partner 0.01 µM)
In short: (§1)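 Lung cancer cell lines in 1536-well plates were dosed by pin tool the day after seeding, either with one drug alone or with a fixed anchor-drug dose plus five library-drug doses (not always all listed) in √10 steps. After 5 days, cells were fixed and their nuclei stained in one step (final 0.05% Triton X-100, 1% formaldehyde, 1 ug/ml Hoechst), then counted on 4× images. Relative viability is the nuclei count in treated wells divided by that in vehicle wells. Values are medians of duplicate plates.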

IMD-0354 + Tozasertib = compound: O=C(Nc1cc(C(F)(F)F)cc(C(F)(F)F)c1)c1cc(Cl)ccc1O [IMD-0354] + Cc1cc(Nc2cc(N3CCN(C)CC3)nc(Sc3ccc(NC(=O)C4CC4)cc3)n2)n[nH]1 [Tozasertib] (partner 0.1 µM)
In short: as §1

CX-5461 + Vorinostat = compound: Cc1cnc(CNC(=O)c2c(=O)c3ccc(N4CCCN(C)CC4)nc3n3c2sc2ccccc23)cn1 [CX-5461] + O=C(CCCCCCC(=O)Nc1ccccc1)NO [Vorinostat] (partner 1 µM)
In short: as §1

IMD-0354 + Olaparib = compound: O=C(Nc1cc(C(F)(F)F)cc(C(F)(F)F)c1)c1cc(Cl)ccc1O [IMD-0354] + O=C(c1cc(Cc2n[nH]c(=O)c3ccccc23)ccc1F)N1CCN(C(=O)C2CC2)CC1 [Olaparib] (partner 8 µM)
In short: as §1

Cell Line	relative viability (IMD-0354 + Luminespib; first compound 0.04 µM)	relative viability (IMD-0354 + Luminespib; first compound 0.1265 µM)	relative viability (IMD-0354 + Luminespib; first compound 0.4 µM)	relative viability (IMD-0354 + Luminespib; first compound 1.265 µM)	relative viability (IMD-0354 + Luminespib; first compound 4 µM)	relative viability (IMD-0354 + Tozasertib; first compound 0.04 µM)	relative viability (IMD-0354 + Tozasertib; first compound 0.1265 µM)	relative viability (IMD-0354 + Tozasertib; first compound 0.4 µM)	relative viability (IMD-0354 + Tozasertib; first compound 1.265 µM)	relative viability (IMD-0354 + Tozasertib; first compound 4 µM)	relative viability (CX-5461 + Vorinostat; first compound 0.01 µM)	relative viability (CX-5461 + Vorinostat; first compound 0.03162 µM)	relative viability (CX-5461 + Vorinostat; first compound 0.1 µM)	relative viability (CX-5461 + Vorinostat; first compound 0.3162 µM)	relative viability (CX-5461 + Vorinostat; first compound 1 µM)	relative viability (IMD-0354 + Olaparib; first compound 0.04 µM)	relative viability (IMD-0354 + Olaparib; first compound 0.1265 µM)	relative viability (IMD-0354 + Olaparib; first compound 0.4 µM)	relative viability (IMD-0354 + Olaparib; first compound 1.265 µM)	relative viability (IMD-0354 + Olaparib; first compound 4 µM)
NCI-H1437	1.21	0.899	0.45	0.191	0.202	0.457	0.394	0.289	0.262	0.224	0.942	0.871	0.791	0.858	0.749	0.669	0.574	0.376	0.218	0.232
NCI-H2342	0.771	0.746	0.629	0.699	0.388	0.497	0.534	0.471	0.401	0.377	0.686	0.768	0.642	0.619	0.776	0.432	0.478	0.356	0.38	0.432
ChaGo-K-1	0.639	0.566	0.364	0.223	0.228	0.226	0.196	0.236	0.171	0.176	0.786	0.81	0.699	0.262	0.513	0.34	0.455	0.375	0.241	0.218
NCI-H650	0.791	0.873	0.59	0.381	0.167	0.834	0.745	0.644	0.36	0.2	0.462	0.294	0.635	0.399	0.312	0.329	0.355	0.32	0.211	0.144
COR-L23	0.583	0.53	0.402	0.115	0.166	0.197	0.159	0.175	0.0719	0.101	0.612	0.436	0.451	0.389	0.218	0.298	0.32	0.286	0.104	0.127
COR-L 105	0.891	0.906	0.463	0.317	0.236	0.379	0.311	0.394	0.341	0.207	0.929	0.872	0.728	0.71	0.599	0.644	0.666	0.62	0.562	0.443
NCI-H1395	0.73	0.586	0.675	0.362	0.314	0.753	0.721	0.683	0.453	0.344	0.672	0.635	0.535	0.379	0.473	0.449	0.464	0.466	0.361	0.337
201T	1.19	1.04	0.678	0.638	0.278	1.14	0.996	0.614	1.06	0.354	1.07	1.04	1.02	0.559	0.976	0.872	0.833	0.532	0.849	0.291
HCC-44	0.737	1.1	0.786	0.311	0.239	0.955	0.899	0.706	0.351	0.17	1.17	1.16	1.03	1.13	1.03	0.994	1.04	0.571	0.789	0.296
NCI-H596	1.01	1	0.508	0.306	0.275	1.02	0.946	0.599	0.955	0.503	0.608	0.686	0.664	0.706	0.306	0.758	0.635	0.701	0.818	0.463
H3255	0.776	0.845	0.778	0.293	0.285	0.631	0.602	0.493	0.586	0.387	0.767	0.771	0.9		0.734	0.49	0.541	0.435	0.37	0.318
NCI-H647	0.303	0.261	0.166	0.111	0.0881	0.441	0.379	0.223	0.169		0.646	0.536	0.441	0.548	0.251	0.67	0.485	0.292	0.0684	0.113
NCI-H2023	1.03	0.799	0.292	0.0846	0.121	0.338	0.296	0.23	0.126	0.117	0.564	0.355		0.15	0.0756	0.504	0.427	0.315	0.0756	0.183
NCI-H23	0.299	0.212	0.247	0.178	0.145	0.338	0.376	0.275	0.157	0.186	0.755	0.577	0.492	0.458	0.3	0.277	0.35	0.24	0.132	0.197
NCI-H2170	0.754	0.746	0.491	0.764	0.231	0.788	0.779	0.377	0.624	0.226	0.887	0.772	0.846	0.743	0.703	0.531	0.647	0.421	0.561	0.185
NCI-H1944	0.727	0.818	0.669	0.634	0.17	0.252	0.245	0.206	0.208	0.131	0.538	0.569	0.383	0.25	0.271	0.377	0.331	0.3	0.302	0.191
